Source: patent US10300055B2, “Treatment of parkinson's disease through ARFGAP1 inhibition” (Dalhousie University, priority 2014, dated 2019)

Target: T1, hArfGAP1 (human ArfGAP1) (Homo sapiens, UniProt Q8N6T3)
T1 construct: expressed in transfected cells; host or cells: Saccharomyces cerevisiae strain PPY17:114-3B-141-A (gcs1::NatR, pdr5::HIS3, snq2::TRP1), galactose-induced
Assay: Yeast growth restoration screen: S. cerevisiae gcs1 knockout strain expressing hArfGAP1
Format: cell-based
Conditions: retest at various concentrations, FIG. 5; A600; compared with 3B-VEC empty vector strain
Text: Overexpression of heterologous proteins in the yeast Saccharomyces cerevisiae often inhibits its growth, while inhibitors of the overexpressed proteins can restore growth. These simple observations form the basis of a powerful assay to identify inhibitors of such proteins. An expression plasmid for the inducible expression of a gene of interest is introduced into a yeast strain rendered more sensitive to chemicals by deletion of efflux pumps. Protein expression is induced, cells are exposed to test chemicals, and growth is measured by optical density at 600 nm (OD600 or A600) reading.
In the instant case, a S. cerevisiae gcs1 knockout strain is employed bearing a vector expressing the heterologous protein hArfGAP1 (human ArfGAP1, the human ortholog of yeast GCS1). Generally, expression of ArfGAP1 will suppress growth of gcs1 knockout yeast and thus small molecules that inhibit ArfGAP1 will lead to observable increases in growth. This in turn allows for the direct identification of small molecules that could be used to treat LRRK2-mutation induced PD.
PPY17:114-3B-vec (gcs1::NatR, pdr5::HIS3, snq2::TRP1, ura3, ade2, carrying plasmid pRS315) [empty vector control strain]; PPY17:114-3B-141-A (gcs1::NatR, pdr5::HIS3, snq2::TRP1, ura3, ade2, carrying plasmid pPP16:141 pGAL1-hArfGAP1) [human ArfGAP1-expressing strain].
1. The day before screening, the control strain containing the empty plasmid and the selected test strain bearing the plasmid with the gene of interest were inoculated into 2 mL of SC selection medium containing 2% glucose. Cells were grown overnight at 30° C. with shaking at 220 rpm. Note: it can be observed that the yeast strain expressing human expression vector and the yeast strain containing the empty vector grow at the same rate in glucose, which represses ArfGAP1 expression.
4. The pellet was suspended in 1-mL sterile water and the A 600 was measured. […]
9. Stacks of five plates were shaken on a vortexer at low speed (e.g., setting 4 of a Genie 2 Vortex mixer) for 90 s to resuspend the yeast cells, and the A 600 was measured using a 96-well plate reader. […]

T1 sequence (Q8N6T3 whole entry): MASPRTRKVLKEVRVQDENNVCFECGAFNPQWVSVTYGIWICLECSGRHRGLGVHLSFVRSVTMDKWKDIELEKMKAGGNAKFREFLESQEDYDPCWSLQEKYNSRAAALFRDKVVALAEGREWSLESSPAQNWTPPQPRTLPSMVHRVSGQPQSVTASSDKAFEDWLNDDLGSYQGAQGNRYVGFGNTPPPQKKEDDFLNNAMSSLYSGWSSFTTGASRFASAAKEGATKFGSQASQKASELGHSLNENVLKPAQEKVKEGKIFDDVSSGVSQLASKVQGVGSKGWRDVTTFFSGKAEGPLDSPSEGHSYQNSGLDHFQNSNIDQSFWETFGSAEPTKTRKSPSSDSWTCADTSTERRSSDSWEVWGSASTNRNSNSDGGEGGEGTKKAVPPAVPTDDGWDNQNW

growth of yeast ArfGAP1 gcs1 knockout strains	Compound
dose-dependent growth	O=[N+]([O-])c1ccc(N2CCN(Cc3cccs3)CC2)cc1 [compound 5261344]
dose-dependent growth	CC(=O)c1ccc(N2CCN(CC3=CC[C@H]4C[C@@H]3C4(C)C)CC2)cc1 [compound 5429814]
dose-dependent growth	C/C=C(\C)CN1CCN(c2ccc(C(C)=O)cc2)CC1 [compound 5431942]
